Results reported in patent publication US20250287948A1, “TOBACCO ALKALOID INSECT REPELLENT IN PLANTS” (Philip Morris Products S.A., priority 2022, published 2025).
“And” between values parts separate entries of the source, which are not always exact repeats. Identical values can stand only once.

Assays:
adult whitefly [1] = experiment: Tube test assay: repelling effect on adult whitefly, treated leaf disks (Examples 1-3); type: in vivo
Protocol: For the purpose of the study, a tube test assay was performed using solutions of anatabine and DEET prepared according to Table 1.
For the purpose of the study, leaf disks were dipped for a total time of 30 seconds into the prepared solutions and left to dry for 10 minutes at room temperature. Subsequently, the leaf disks were deposited at the bottom of glass tubes and a minimum of 20 adult whiteflies were introduced into the tubes. […] The repelling effect of both anatabine and DEET is shown in Table 2 and was calculated by counting the number of whitefly landing on a leaf compared to the placebo control, using the Abbott's formula: […]
The placebo control defines the baseline, against which the repelling effect is then calculated according to the formula above.
For the purpose of the study, a tube test assay was performed using solutions of anatabine at three different concentrations prepared according to Table 3.
The placebo control defines the baseline, against which the repelling effect is then calculated.
For the purpose of the study, leaf disks were dipped for a total time of 30 seconds into the prepared solutions and left to dry for 10 minutes at room temperature. Subsequently, the leaf disks were deposited at the bottom of glass tubes and a minimum of 20 adult whiteflies were introduced into the tubes. The repelling effect of anatabine at three different concentrations was measured at different time points: after 1 hour, 3 hours, 6 hours. the repelling effect of anatabine at different concentrations is shown in Table 4.
A concentration of 5 percent was chosen based on the results of Example 2. […] In the placebo control the leaves were treated with solvent only. The placebo control defines the baseline, against which the repelling effect is then calculated.
(§1) For the purpose of the study, leaf disks were dipped for a total time of 30 seconds into the prepared solutions and left dry for 10 minutes at room temperature. Subsequently, the leaf disks were deposited at the bottom of glass tubes and a minimum of 20 adult whiteflies were introduced into the tubes.

adult whitefly [2] = experiment: Tube test assay: repelling effect with whitefly introduced at later infestation time points (Example 4); type: in vivo; conditions: concentration 5 percent; for repelling effect: remaining 5 days (up to 123 hours) of the evaluation period
Protocol: The repelling effect of anatabine on adult whitefly was evaluated in a further comparative study which introduced additional whitefly and freshly treated leaves at set evaluation time points. For the purpose of the study, a tube test assay was performed using solutions of anatabine and DEET at a concentration of 5 percent together with a placebo solution, as shown in Table 10. The placebo control defines the baseline, against which the repelling effect is then calculated.
Whitefly were introduced into the tube at infestation time points: 48, 72 and 120 hours and the repelling effect was measured after 3 hours at evaluation time points: 51, 75 and 123 hours.

whitefly [3] = experiment: Presence of eggs on treated leaves, evaluated visually; type: in vivo; conditions: concentration 5 percent; evaluation period of up to 6 days (144 hours)
Protocol: In addition, the presence and amount of eggs on the leaves after a period of 48 hours was evaluated visually and the results are shown in Table 7.
The presence of eggs was visually monitored 24 hours after each infestation time point.

whitefly [4] = experiment: Whitefly mortality on treated leaves; type: in vivo; conditions: concentration 5 percent
Protocol: as §1
The study also assessed the whitefly mortality rate over the duration of the evaluation period. […]

leaves = experiment: Damage to leaves caused by treatment
Protocol: as §1, with “left to” for “left”
as §1

[5] = concentration 1.0 percent, evaluation time 0 hour
[6] = concentration 1.0 percent, evaluation time 1 hour
[7] = concentration 1.0 percent, evaluation time 3 hour
[8] = concentration 5 percent, evaluation time 0 hour (Example 3)
[9] = concentration 5 percent, evaluation time 6 hour (Example 3)
[10] = concentration 5 percent, evaluation time 24 hour (Example 3)
[11] = concentration 5 percent, evaluation time 48 hour (Example 3)
[12] = infestation time 48 hour, evaluation time 51 hour
[13] = infestation time 72 hour, evaluation time 75 hour
[14] = infestation time 120 hour, evaluation time 123 hour

| Compound | Mean Repellence (adult whitefly [1]; [5]) [%] | Mean Repellence (adult whitefly [1]; [6]) [%] | Mean Repellence (adult whitefly [1]; [7]) [%] | Mean Repellence (adult whitefly [1]; [8]) [%] | Mean Repellence (adult whitefly [1]; [9]) [%] | Mean Repellence (adult whitefly [1]; [10]) [%] | Mean Repellence (adult whitefly [1]; [11]) | Mean Repellence (adult whitefly [2]; [12]) [%] | Mean Repellence (adult whitefly [2]; [13]) [%] | Mean Repellence (adult whitefly [2]; [14]) [%] | repelling effect (adult whitefly [2]) | Mean Mortality (whitefly [4]; evaluation time 0 hour) [%] | Mean Mortality (whitefly [4]; evaluation time 6 hour) [%] | Mean Mortality (whitefly [4]; evaluation time 24 hour) [%] | Mean Mortality (whitefly [4]; evaluation time 48 hour) [%] | also measured |
| --- | --- | --- | --- | --- | --- | --- | --- | --- | --- | --- | --- | --- | --- | --- | --- | --- |
| C1=CCC(c2cccnc2)NC1 (stereo not drawn) [Anatabine, anatabine] | 81.3 | 90.0 | 96.0 | 100 | 100 | 100 | 100% | 100 | 85.3 | 82.2 | more than 80% | 0.0 | 7.6 | 41.3 | 84.6 | Mean Repellence (adult whitefly [1]; concentration 1.0 percent, evaluation time 6 hour): 88.9%; repelling effect (adult whitefly [1]; concentration 1.0 percent, throughout the evaluation period of 6 hours): over 80%; Mean Repellence (adult whitefly [1]; concentration 2 percent, evaluation time 3 hour): 100%; Mean Repellence (adult whitefly [1]; concentration 2 percent, evaluation time 6 hour): 100%; Mean Repellence (adult whitefly [1]; concentration 5 percent, evaluation time 3 hour (Example 2)): 100%; Mean Repellence (adult whitefly [1]; concentration 5 percent, evaluation time 6 hour (Example 2)): 100%; repelling effect (adult whitefly [1]; concentration 5 percent, throughout the evaluation period of 48 hours): 100%; Mean Repellence (adult whitefly [1]; concentration 10 percent, evaluation time 3 hour): 100%; Mean Repellence (adult whitefly [1]; concentration 10 percent, evaluation time 6 hour): 100%; repelling effect (adult whitefly [1]; regardless of the concentration (2, 5, 10 percent), 3 and 6 hours): 100%; number of eggs observed on the leaves (whitefly [3]): remained low; Leaves damage (leaves; concentration 5 percent, evaluation time 48 hour): did not cause any damage; damage to leaves (leaves; concentrations of 5 percent or less (Example 2)): not damaged |
| CCN(CC)C(=O)c1cccc(C)c1 [DEET, N,N-Diethyl-meta-toluamide, reference compound] | 87.5 | 90.0 | 68.0 | 100 | 100 | 94.9 | 93% and 93.4% | 54.1 | 55.9 | 48.9 | below 50% | 0.0 | 1.4 | 50.0 | 80.3 | drop of the repelling effect (adult whitefly [1]; concentration 1.0 percent, after 6 hours): ~40%; drop of efficacy (adult whitefly [2]; after the first 48 hours): ~50% |
| COC(=O)c1ccccc1 [Methyl Benzoate, methyl benzoate, reference compound] |  |  |  | 100 | 47.2 | 76.8 | 76.5% |  |  |  |  | 0.0 | 1.4 | 47.6 | 77.8 | drop of the repelling effect (adult whitefly [1]; concentration 5 percent, by the end of the 48 hours evaluation period): ~25% |
